Values quoted from earlier work, collected in patent US20250161199A1, “FORMULATION FOR TREATING AND PREVENTING HAIR LOSS” (DR. BARR - MEDICINE AS ART LTD, priority 2023, published 2025).

Test system: androgenic alopecia
Details: in vivo

| Compound | time until effect becomes apparent |
| --- | --- |
| C[C@]12C=CC(=O)N[C@@H]1CC[C@@H]1[C@@H]2CC[C@]2(C)[C@@H](C(=O)Nc3cc(C(F)(F)F)ccc3C(F)(F)F)CC[C@@H]12 [dutasteride] | only after several months of treatment |
| CC(C)(C)NC(=O)[C@H]1CC[C@H]2[C@@H]3CC[C@H]4NC(=O)C=C[C@]4(C)[C@H]3CC[C@]12C [finasteride] | only after several months of treatment |
